From the NIST ThermoML archive (doi:10.1016/j.jct.2016.03.026)
± gives the expanded uncertainty stated by the source.

Experiment: xn = mol fraction of the nth substance listed
Details: 313.15 K, Fluid (supercritical or subcritical phases), x1 = 0.97; for mass density: Vibrating tube method; for speed of sound: Frequency=5 MHz, Pulse-echo method

O=C=O [carbon dioxide] + CO
Details | mass density [kg/m3] | speed of sound [m/s]
17250 kPa | 821 ± 0.83 | –
17275 kPa | 821.23 ± 0.83 | –
17300 kPa | 821.48 ± 0.83 | –
17325 kPa | 821.73 ± 0.82 | –
17350 kPa | 821.98 ± 0.82 | –
17375 kPa | 822.18 ± 0.82 | –
17400 kPa | 822.42 ± 0.82 | –
17425 kPa | 822.65 ± 0.82 | –
17450 kPa | 822.87 ± 0.82 | –
17475 kPa | 823.11 ± 0.82 | –
17500 kPa | 823.28 ± 0.82 | –
17525 kPa | 823.52 ± 0.82 | –
17550 kPa | 823.71 ± 0.82 | –
17575 kPa | 823.99 ± 0.82 | –
17600 kPa | 824.21 ± 0.82 | –
17625 kPa | 824.46 ± 0.82 | –
17650 kPa | 824.71 ± 0.82 | –
17675 kPa | 824.95 ± 0.82 | –
17700 kPa | 825.17 ± 0.82 | –
17725 kPa | 825.45 ± 0.82 | –
17750 kPa | 825.67 ± 0.82 | –
17775 kPa | 825.94 ± 0.82 | –
17800 kPa | 826.17 ± 0.82 | –
17825 kPa | 826.41 ± 0.82 | –
17850 kPa | 826.64 ± 0.82 | –
17875 kPa | 826.87 ± 0.82 | –
17900 kPa | 827.14 ± 0.82 | –
17925 kPa | 827.38 ± 0.82 | –
17950 kPa | 827.61 ± 0.82 | –
17975 kPa | 827.85 ± 0.82 | –
18000 kPa | 828.1 ± 0.82 | –
18025 kPa | 828.35 ± 0.82 | –
18050 kPa | 828.6 ± 0.82 | –
18075 kPa | 828.84 ± 0.82 | –
18100 kPa | 829.11 ± 0.82 | –
18125 kPa | 829.36 ± 0.82 | –
18150 kPa | 829.59 ± 0.82 | –
18175 kPa | 829.87 ± 0.82 | –
18200 kPa | 830.13 ± 0.82 | –
18225 kPa | 830.35 ± 0.82 | –
18250 kPa | 830.62 ± 0.82 | –
18275 kPa | 830.86 ± 0.82 | –
18300 kPa | 831.12 ± 0.82 | –
18325 kPa | 831.37 ± 0.82 | –
18350 kPa | 831.62 ± 0.82 | –
18375 kPa | 831.85 ± 0.82 | –
18400 kPa | 832.11 ± 0.82 | –
18425 kPa | 832.31 ± 0.82 | –
18450 kPa | 832.53 ± 0.82 | –
18475 kPa | 832.8 ± 0.82 | –
18500 kPa | 833.03 ± 0.82 | –
18525 kPa | 833.28 ± 0.82 | –
18550 kPa | 833.5 ± 0.82 | –
18575 kPa | 833.75 ± 0.82 | –
18600 kPa | 833.97 ± 0.82 | –
18625 kPa | 834.2 ± 0.82 | –
18650 kPa | 834.43 ± 0.82 | –
18675 kPa | 834.69 ± 0.82 | –
18700 kPa | 834.94 ± 0.82 | –
18725 kPa | 835.15 ± 0.82 | –
18750 kPa | 835.38 ± 0.82 | –
18775 kPa | 835.62 ± 0.82 | –
18800 kPa | 835.84 ± 0.82 | –
18825 kPa | 836.06 ± 0.82 | –
18850 kPa | 836.28 ± 0.82 | –
18875 kPa | 836.55 ± 0.82 | –
18900 kPa | 836.78 ± 0.82 | –
18925 kPa | 837.02 ± 0.82 | –
18950 kPa | 837.22 ± 0.82 | –
18975 kPa | 837.47 ± 0.82 | –
19000 kPa | 837.72 ± 0.82 | –
19025 kPa | 837.93 ± 0.82 | –
19050 kPa | 838.15 ± 0.82 | –
19075 kPa | 838.38 ± 0.82 | –
19100 kPa | 838.61 ± 0.82 | –
19125 kPa | 838.87 ± 0.82 | –
19150 kPa | 839.12 ± 0.82 | –
19175 kPa | 839.32 ± 0.82 | –
19200 kPa | 839.61 ± 0.82 | –
19225 kPa | 839.82 ± 0.82 | –
19250 kPa | 840.03 ± 0.82 | –
19275 kPa | 840.27 ± 0.82 | –
19300 kPa | 840.49 ± 0.82 | –
19325 kPa | 840.71 ± 0.82 | –
19350 kPa | 840.94 ± 0.82 | –
19375 kPa | 841.18 ± 0.82 | –
19400 kPa | 841.4 ± 0.82 | –
19425 kPa | 841.61 ± 0.82 | –
19450 kPa | 841.84 ± 0.82 | –
19475 kPa | 842.08 ± 0.82 | –
19500 kPa | 842.31 ± 0.82 | –
19525 kPa | 842.53 ± 0.82 | –
19550 kPa | 842.75 ± 0.82 | –
19575 kPa | 842.96 ± 0.82 | –
19600 kPa | 843.19 ± 0.82 | –
19625 kPa | 843.37 ± 0.82 | –
19650 kPa | 843.59 ± 0.82 | –
19675 kPa | 843.84 ± 0.82 | –
19700 kPa | 844.02 ± 0.82 | –
19725 kPa | 844.25 ± 0.82 | –
19750 kPa | 844.43 ± 0.82 | –
19775 kPa | 844.64 ± 0.82 | –
19800 kPa | 844.89 ± 0.82 | –
19825 kPa | 845.06 ± 0.82 | –
19850 kPa | 845.27 ± 0.82 | –
19875 kPa | 845.47 ± 0.82 | –
19900 kPa | 845.69 ± 0.82 | –
19925 kPa | 845.91 ± 0.82 | –
19950 kPa | 846.1 ± 0.82 | –
19975 kPa | 846.29 ± 0.82 | –
20000 kPa | 846.53 ± 0.82 | –
31890 kPa | – | 648.6 ± 0.9
34940 kPa | – | 674.9 ± 0.9
39990 kPa | – | 714.5 ± 1
44940 kPa | – | 749.7 ± 1
49940 kPa | – | 782 ± 1
54960 kPa | – | 812.2 ± 1.1
60140 kPa | – | 841.3 ± 1.1
65170 kPa | – | 867.7 ± 1.1
70010 kPa | – | 891.8 ± 1.2
75170 kPa | – | 916.2 ± 1.2
80060 kPa | – | 938.2 ± 1.2
